# Assays:
# [1] = Peak absorption and fluorescence emission wavelengths in solvents; type: physicochemical; conditions: for λem(max)/nm: 100 nM, excitation at peak of absorption; for λabs(max)/nm: 10 μM
# Description: Peak absorption and fluorescence emission wavelengths of compounds 6, 7, 12, 13, 14, 15, 19, 23, 27, 30 and 34 were measured in a variety of solvents, and the results are shown in Table 1. Absorption measurements were recorded at a concentration of 10 μM, and emission measurements were recorded at a concentration of 100 nM. Emission spectra were recorded with excitation at the peak of absorption (S0→S1).
# HaCaT keratinocytes = test: Co-staining with organelle markers, co-localisation (PCC); type: cell-based; conditions: 1 μM compound, 30 minutes, BODIPY ER-Tracker Red
# Description: To study the localisation of compounds in biological cells, co-staining of compounds of formula I with specific organelle markers (fluorescent dyes and antibodies) within biological cells was conducted. The following compounds were studied: compounds 6, 7, 12, 13, 14 and 15. HaCaT keratinocyte cell lines were used for the following experimental procedures. The cells were incubated in cell culture media (94% Dulbecco's Modified Eagle Medium (DMEM), 5% Foetal Bovine Serum (FBS) and 1% Penicillin Streptomycin solution (Pen-Strep). The cells were plated in 8-well plates, at a concentration of 25,000 cells per ml. 200 μl of cell suspension was added to each well, and the cells were incubated for 2 days before staining and imaging was carried out. In order to visualise the mitochondria, cells were probed with the mitochondrial dye MitoTracker® Deep Red. Cells to be stained were incubated with 200 μl MitoTracker® Deep Red solution (200 nM MitoTracker® and 1 μM Formula I compound in cell culture media) per well (N=3) for 30 minutes. Nile Red was used to identify lipids within the cells. 200 μl Nile Red Lipophilic dye (10 μg/ml Nile Red and 1 μM Formula I compound in cell culture media) was added to each well (N=3) and incubated for 30 minutes. For the detection of lysosomes within the cells, LysoTracker® Red DND-99 dye was used. 200 μl LysoTracker® Red DND-99 (50 nM LysoTracker® and 1 μM Formula I compound solution in cell culture media) was added to each well (N=3) and incubated for 30 minutes. For visualisation of the endoplasmic reticulum (ER), cells were stained with BODIPY® ER-Tracker® Red. 200 μl BODIPY ER-Tracker® Red (1 μM BODIPY® and 1 μM Formula I compound solution in cell culture media) was added to each well (N=3) and incubated for 30 minutes. Following incubation, the cell culture media containing dye was removed, and cells were washed twice with 200 μl phosphate buffered saline (PBS). After washing, 200 μl PBS was added into each well for imaging. For visualisation of the nuclear lamina, cells were probed with an anti-lamin A/C antibody. The cells were plated on 22×22 mm cover slips (10,000 cells/ml) and incubated for 2 days before staining. The cells were washed with PBS to remove excess media before staining. The cells were fixed with 4% paraformaldehyde (PFA) for 10 minutes at room temperature, before being washed twice in PBS for 5 minutes. Following washing, the cells were permeabilised in 0.4% Triton X-100 in PBS for 10 minutes. The cells were subsequently washed three times in PBS for 5 minutes, before being incubated in blocking buffer (1% BSA, 0.1% fish gelatine and 0.1% Triton X-100 in PBS) for 15 minutes at room temperature. The cells were incubated in primary antibody (mouse anti-lamin A/C IgG in blocking buffer) for 1 hour at room temperature. The cells were then washed twice in blocking buffer and incubated in secondary antibody (anti-mouse Alexa-594 IgG in blocking buffer) for 30 minutes at room temperature. Cells were washed twice in PBS for 10 minutes at room temperature. For cell staining with compounds of formula I, 5 μM of the compound of formula I in PBS was added to the cells for 30 minutes at room temperature. Cells were then washed five times for 5 minutes in PBS. Following washing, the cells were mounted onto non-charged microscopy slides using 6 μl Mowiol® per cover slip as mounting media. A Zeiss 880 confocal microscope was used for all the imaging work. [table] Image) Coloc2 software was used to calculate co-localization statistics between the compounds of formula I and the organelle marker images. The background was subtracted from each image and a region of interest (ROI) was used to target the analysis. The point spread function (PSF) of each image was calculated as 2.0 and Coastes' iterations was set to 100. The statistic quantified was the Pearson's Correlation Coefficient (PCC). PCC gives a number ranging from +1 to −1:1=perfect co-localisation; 0=no relationship; and, −1=perfect anti-co-localisation. […]
# S. epidermidis [2] = test: Overnight growth curve (OD 600 nm) cytotoxicity assay, S. epidermidis; type: cell-based, Staphylococcus epidermis
# Description: A sample of S. epidermidis was taken from a plate culture and inoculated into Luria Broth to culture overnight at 30° C. for approximately 16 hours.
# Samples were incubated in darkness at room temperature for approximately 2 hrs. A black clear bottom Costar™-96 well plate was then filled, with 200 μl of sample in each well Cells were irradiated for 5 minutes at approximately 15 mW/cm^2. The cytotoxicity of the compounds without irradiation was also assessed.
# The 96 well plate was put into the plate reader and set up to run a growth curve protocol using the following parameters: • Incubation temperature: 37° C. • OD read wavelength 600 nm • 250 cycles, readings every 5 rains • Shaking for 5 s pre-reading
# This was left to run overnight to obtain kinetic growth curves based on optical density readings.
# Bacillus subtilis = test: Overnight growth curve (OD 600 nm) cytotoxicity assay, B. subtilis; type: cell-based
# Description: A sample of B. subtilis was taken from a plate culture and inoculated into Luria Broth to culture overnight at 37° C. for approximately 16 hours. [table] Samples were incubated in darkness at room temperature for approximately 2 hrs. A black clear bottom Costar™-96 well plate was then filled, with 200 μl of sample in each well Cells were irradiated for 5 minutes at approximately 15 mW/cm^2. The cytotoxicity of the compounds without irradiation was also assessed. The 96 well plate was put into the plate reader and set up to run a growth curve protocol using the following parameters: • Incubation temperature: 37° C. • OD read wavelength 600 nm • 250 cycles, readings every 5 rains • Shaking for 5 s pre-reading This was left to run overnight to obtain kinetic growth curves based on optical density readings.
# S. epidermidis [3] = test: Baclight staining (propidium iodide / Syto 9), widefield imaging, S. epidermidis; type: cell-based, Staphylococcus epidermis; conditions: 1 μM
# Description: Samples prepared according to Table 9 were treated with compounds by diluting 10 mM of stock solution in media to make a 100 μM concentration. This solution was then further diluted 1:10 and 1:100 in media to make 10 μM and 1 μM media solutions containing the compound. 50 μl of cell culture were then added to the 100 μM, 10 μM and 1 μM compound-containing media preparations. Following the treatment outlined in Table 9, each of the three bacterial strains were stained using a Baclight™ staining kit containing separate solutions of Syto™ 9 and Propidium Iodide. One extra sample treated with 0.1 μM of each compound was also included in this assay. M. smegmatis, S. epidermis and B. subtilis were stained with propidium iodide to show non-viable cells and with Syto 9 to show all cells. The following staining procedure was used: • 1. 1 ml of each sample was eluted into a well of a 12-well plate; • 2. One half of the 12 well plate was irradiated at approximately 15 mW/cm^2 for 5 mins; • 3. The content of each well was eluted into separate Eppendorfs and centrifuged at 10,000 r.p.m for 3 rains to form a culture pellet; • 4. Media was then removed, and each pellet resuspended in 200 μl of 1× PBS before being centrifuged at 10,000 r.p.m. for 3 mins. • 5. A preparation of Baclight™-staining solution was made using 1 ml 1× PBS, 3 μl propidium iodide and 3 μl Syto™ 9; • 6. […]
compound,measurement,setting,value
"CC(C)(C)OC(=O)/C=C/c1ccc(C#Cc2ccc(N3CCNCC3)cc2)cc1 [Compound 6, tert-butyl (2E)-3-(4-{2-[4-(piperazin-1-yl)phenyl]ethynyl}phenyl)prop-2-enoate]",λem(max)/nm,[1]; DCM,550 nm
same,λabs(max)/nm,[1]; DCM,368 nm
same,λem(max)/nm,[1]; Toluene,482 nm
same,λabs(max)/nm,[1]; Toluene,358 nm
same,average PCC Value with BODIPY ER-Tracker,HaCaT keratinocytes,0.48
same,"lag phase of growth of S. epidermidis, photoactivated","S. epidermidis [2]; 1 μM, 405 nm, 5 min, approximately 15 mW/cm^2, untreated lag around 2 hrs",around 15 hrs
same,"growth of S. epidermidis, non-photoactivated","S. epidermidis [2]; 1 μM, not irradiated",minor impact on growth by extended lag phase
same,growth of S. epidermidis,"S. epidermidis [2]; 100 and 10μ concentrations, with or without photoactivation",no growth is evident regardless of any photoactivation
same,growth of B. subtilis,"Bacillus subtilis; 10 μM, effect much more significant in the radiated sample",growth is reduced and lag time extended
same,"growth of B. subtilis, radiated","Bacillus subtilis; 5 and 1 μM, 405 nm, 5 min",some growth inhibition
same,"non-viable (red, propidium iodide) cells compared with untreated controls",S. epidermidis [3],increase in red fluorescent cells
